Residue numbers refer to the chain shown, from its start. Entries after “also recorded” stand apart in the source; their conditions may differ.
Columns and labels:
[1] = system: VCaP cells overexpressing AR WT; assay: VCaP growth assay (CellTiter-GLO); assay type: cell-based, human; conditions: full-serum containing media, 10 μM
[2] = system: CWR22PC cells expressing AR WT; assay: CWR22PC cell viability (CellTiterGLO); assay type: cell-based, human; conditions: full serum media; days 1, 4, and 7
Procedure: […]. […] CellTiterGLO assay was performed on days 1, 4, and 7 to measure cell viability. […] CellTiterGLO assay was performed on days 1, 4, and 7 to measure cell viability.
[…]. […] CellTiterGLO assay was performed on days 1, 4, and 7 to determine cell viability. RLU=relative light units.

[3] = system: LNCaP/AR cells ectopically expressing AR WT; assay: LNCaP/AR xenograft, time to tumor progression; assay type: in vivo, castrated male SCID mice; conditions: 30 mg/kg enzalutamide, daily gavage, castrate SCID mice
Procedure: Daily gavage treatment (using a formulation of 1% carboxymethyl cellulose, 0.1% Tween-80, 5% DMSO) was initiated on the day of injection. Once tumors were palpable, tumor size was measured weekly in three dimensions (1×w×d) with calipers.

[4] = system: AR mutants isolated from drug resistant LNCaP/AR xenograft tumors; assay: Luciferase reporter assay of AR activity in androgen depleted media, CV1 cells; assay type: cell-based, human; conditions: 10 μm antiandrogen
[5] = system: AR mutants isolated from drug resistant LNCaP/AR xenograft tumors; assay: EGFP reporter assay of AR activity, LNCaP/Pb.PSE.EGFP cells; assay type: cell-based, human; conditions: androgen containing media, 10 μM antiandrogen
Procedure: Additionally, EGFP reporter assays of AR activity in cells expressing the indicated AR mutants were performed and the data are presented in FIG. 21A and FIG. 21B.

[6] = system: AR mutants isolated from drug resistant CWR22Pc cells; assay: EGFP reporter assay and qRT-PCR, LNCaP/Pb.PSE.EGFP cells; assay type: cell-based, human; conditions: 10 μM antiandrogen; variable degrees, gene-specific differences
AR F876L = target: T1, AR F876L (Homo sapiens, UniProt P10275, DEL79-80/DUP473-473/F877L); assay: EGFP reporter assay of AR activity, LNCaP-Pb.PSE.EGFP cells, flow cytometry; assay type: cell-based; conditions: 10 μM, 4 days of treatment
T1 construct: expressed in transfected cells
T1 sequence (P10275 with tags, fused parts or gaps DEL79-80/DUP473-473/F877L): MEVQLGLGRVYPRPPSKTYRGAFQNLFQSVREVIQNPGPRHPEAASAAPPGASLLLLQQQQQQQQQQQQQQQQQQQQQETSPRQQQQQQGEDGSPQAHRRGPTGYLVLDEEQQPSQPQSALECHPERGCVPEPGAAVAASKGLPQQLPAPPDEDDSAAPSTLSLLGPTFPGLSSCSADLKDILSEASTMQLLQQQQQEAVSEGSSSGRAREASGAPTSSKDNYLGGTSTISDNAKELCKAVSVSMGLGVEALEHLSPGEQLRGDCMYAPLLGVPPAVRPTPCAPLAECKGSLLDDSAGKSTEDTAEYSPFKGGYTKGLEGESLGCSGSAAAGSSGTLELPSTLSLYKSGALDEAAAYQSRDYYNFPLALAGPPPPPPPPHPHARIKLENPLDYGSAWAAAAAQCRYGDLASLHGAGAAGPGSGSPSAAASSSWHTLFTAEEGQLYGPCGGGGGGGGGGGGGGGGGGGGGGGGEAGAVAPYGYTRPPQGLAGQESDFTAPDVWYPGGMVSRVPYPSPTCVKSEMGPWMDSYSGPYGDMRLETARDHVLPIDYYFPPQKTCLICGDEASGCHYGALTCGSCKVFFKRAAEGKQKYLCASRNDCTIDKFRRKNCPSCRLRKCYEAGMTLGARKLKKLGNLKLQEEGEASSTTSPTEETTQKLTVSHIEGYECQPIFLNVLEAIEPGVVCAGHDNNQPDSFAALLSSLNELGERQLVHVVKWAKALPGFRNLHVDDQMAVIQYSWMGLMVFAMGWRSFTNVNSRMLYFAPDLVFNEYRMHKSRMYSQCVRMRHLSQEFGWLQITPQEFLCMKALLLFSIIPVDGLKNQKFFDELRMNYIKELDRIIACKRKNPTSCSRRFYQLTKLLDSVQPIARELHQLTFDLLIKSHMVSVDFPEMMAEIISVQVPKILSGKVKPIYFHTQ
Source text: (§1) This clone was used for all flow cytometry assays and for the FACS-based resistance screens.

AR WT = target: T2, AR WT (Homo sapiens, UniProt P10275, DEL79-80/DUP473-473); assay: as above; assay type: cell-based; conditions: 10 μM, 4 days of treatment
T2 construct: expressed in transfected cells; host or cells: LNCaP-Pb.PSE.EGFP (pantropic retroviral infection, blasticidin selection)
T2 sequence (P10275 with tags, fused parts or gaps DEL79-80/DUP473-473): T1 sequence (P10275 with tags, fused parts or gaps DEL79-80/DUP473-473/F877L) with L876F
Source text: as §1

[7] = system: VCaP cells overexpressing AR F876L; assay: VCaP growth assay (CellTiter-GLO); assay type: cell-based, human; conditions: full-serum containing media, 10 μM
[8] = system: CWR22PC cells expressing AR F876L; assay: CWR22PC cell viability (CellTiterGLO); assay type: cell-based, human; conditions: full serum media; days 1, 4, and 7
Procedure: CellTiterGLO assay was performed on days 1, 4, and 7 to measure cell viability. […] CellTiterGLO assay was performed on days 1, 4, and 7 to measure cell viability.
CellTiterGLO assay was performed on days 1, 4, and 7 to determine cell viability. RLU=relative light units.

[9] = system: DU145 (an AR null human prostate cancer cell line); assay: DU145 cell viability (CellTiterGLO); assay type: cell-based; conditions: 10 μM, full serum containing media
Procedure: DU145 cells were cultured in full serum containing media with 10 uM of the indicated antiandrogens. CellTiterGLO assay was performed on days 0, 3, and 6 to determine cell viability. RLU=relative light units.

[10] = system: VCaP cells expressing AR WT and AR F876L; assay: Western blot of AR signaling and PARP cleavage in VCaP cells; assay type: cell-based, human; conditions: 10 μM, 4 days, media containing FBS
Procedure: Fetal bovine serum (FBS) and charcoal-stripped, dextran-treated fetal bovine serum (CSS) were purchased from Omega Scientific. […] Serial dilutions of all drugs were made using DMSO. Antibodies used for immunoblot assays were b-actin (AC-15, Sigma) PARP (#9543; Cell Signaling Technology), FKBP5 (IHC-00289, Bethyl), b-tubulin (D-10) and androgen receptor (N-20) (both from Santa Cruz Biotechnology). Protein lysates were prepared in M-PER protein extraction reagent (Pierce) or 1% SDS buffer. The chromatin immunoprecipitation assay was conducted using a kit (Upstate) with an antibody for androgen receptor (PG-21, Upstate). Nontarget and mouse AR siRNA pools were from the ON-TARGETplus collection (Dharmacon).

AR T877A = target: T3, AR T877A (Homo sapiens, UniProt P10275, DEL79-80/DUP473-473/T878A); assay: AR luciferase reporter assay (ARE(4X)-luciferase) in CV1 cells; assay type: cell-based; conditions: 10 μM antiandrogen
T3 construct: expressed in transfected cells; host or cells: CV1
T3 sequence (P10275 with tags, fused parts or gaps DEL79-80/DUP473-473/T878A): T1 sequence (P10275 with tags, fused parts or gaps DEL79-80/DUP473-473/F877L) with L876F, T877A
Procedure: Transfection media was removed 4-6 hours later and replaced with phenol red free DME-HG containing 10% charcoal stripped serum. The following day each plate was split into 24- or 48-well plates, in 10% CSS media, containing the indicated drugs in triplicate. Twenty-four to forty-eight hours later, luciferase activity was assayed using Dual-Luciferase Reporter Assay System (Promega) on a 96-well luminometer (Turner Biosystems).

Row | Agonism in luciferase reporter (AR T877A) | SMILES | Growth of VCaP cells, AR WT [1] | Growth/viability of CWR22PC cells, AR WT [2] | Growth of wild-type AR tumors [3] | Agonism on AR mutants, luciferase reporter [4] | Sensitivity of AR mutants, EGFP reporter [5] | Sensitivity of AR mutants, EGFP reporter assay & qRT-PCR [6] | Effect on transcriptional activity of AR F876L in EGFP reporter assay (agonism or antagonism) (AR F876L) | Effect on transcriptional activity of AR WT in EGFP reporter assay (agonism or antagonism) (AR WT) | Growth of VCaP cells, AR WT ([1]; listed as (+)-DR103) | Growth of VCaP cells overexpressing AR F876L [7] | Growth of VCaP cells overexpressing AR F876L ([7]; listed as (+)-DR103) | Growth/viability of CWR22PC cells expressing AR F876L [8] | Proliferation of DU145 cells ([9]; listed as (+)-DR103) | Proliferation of DU145 cells ([9]; listed as DR103) | Endogenous AR signaling (Western blot) [10] | PARP cleavage (Western blot) [10] | Endogenous AR signaling (Western blot) ([10]; listed as DR103) | PARP cleavage (Western blot) ([10]; listed as DR103)
1 |  | CNC(=O)c1ccc(N2C(=S)N(c3ccc(C#N)c(C(F)(F)F)c3)C(=O)C2(C)C)cc1F [enzalutamide] | only inhibit the growth of VCaP/AR WT; also recorded: potently inhibits the growth | very sensitive | almost completely inhibited | none of the mutants conferred agonism | still remained sensitive | still remained sensitive |  |  |  |  |  |  |  |  |  |  |  | 
2 |  | CNC(=O)c1ccc(N2C(=S)N(c3ccc(C#N)c(C(F)(F)F)c3)C(=O)C23CCCC(C)(C)C3)cc1F (racemic) [(±)-DR103, 4-(3-(4-cyano-3-(trifluoromethyl)phenyl)-7,7-dimethyl-4-oxo-2-thioxo-1,3-diazaspiro[4.5]decan-1-yl)-2-fluoro-N-methylbenzamide] | inhibited the growth | growth inhibition |  |  |  |  | effectively antagonized; also recorded: potently inhibited | effectively antagonized | effectively inhibits the growth of both models | inhibited the growth | effectively inhibits the growth of both models | growth inhibition | did not impact the proliferation | no significant growth inhibition | inhibited endogenous AR signaling | induced PARP cleavage | efficiently inhibits AR signaling | induces PARP cleavage
3 | confer agonism | CC(C)(O)C(=O)Nc1ccc([N+](=O)[O-])c(C(F)(F)F)c1 [hydroxyflutamide] |  |  |  |  |  |  |  |  |  |  |  |  |  |  |  |  |  | 

— patent US10206911B2, “Androgen receptor variants and methods for making and using” (MEMORIAL SLOAN-KETTERING CANCER CENTER, priority 2012, dated 2019)
